In patent US5236900A, “Anti-fungal agents” (Schering Corporation, priority 1991, dated 1993):

Assays:
[1] = test system: Sensitive strains: Candida albicans C141, Candida sp. C2, Candida sp. C109, Candida parapsilosis C67, Candida tropicalis C112, Torulopsis glabrata C95, Candida …; assay: Microtiter minimum inhibitory concentration (MIC) test, sensitive strains; assay type: cell-based, Candida spp., Sacchararomyces; settings: geometric mean of MICs against sensitive strains; YNB pH 5.4, 37° C., 48 hours
Method: (§1) In vitro anti-fungal activity was determined in microtiter minimum inhibitory concentration (MIC) tests using Yeast Nitrogen Broth (YNB without amino acids, Difco., Detroit, Mich.) at pH 5.4. Yeasts were grown overnight in Sabouraud Dextrose Broth at 28° C. with shaking, and concentrations adjusted in sterile saline using a spectrophoptometer at 540 mμ. Compounds were dissolved in various vehicles and diluted in media to twice the final concentrations. The Cetus Pro/Pette system was used to serially dilute 50 μl in round bottom 96 well plates (Falcon, Lincoln Park, N.J.). The turbidometrically adjusted yeast suspensions were diluted 1:3,000 in YNB. These dilutions when added to the wells, produced a final inoculum of 3×10^3 /ml. Plates were incubated at 37° C. for 48 hours. MICs were defined as the lowest concentrations of compound that prevented visible growth. MICs were taken against the following organisms and expressed in the table above as the geometric mean.
Candida pseudotropicalis C 967
Candida guillermondii C137
Sacchararomyces mutant C147

[2] = test system: Resistant strains: Candida albicans C79, C6, C8, C31, C54, C70, C104, C138, C140; Candida stellatoidea C45; assay: Microtiter minimum inhibitory concentration (MIC) test, resistant strains; assay type: cell-based; settings: geometric mean of MICs against resistant strains; YNB pH 5.4, 37° C., 48 hours
Method: as §1

6'-Dodecylamido-5-N-L-Valinyl-UPOC [Compound 3]
MIC-S [1]: 26 µg/mL | MIC-R [2]: 17 µg/mL
